Patent US20170001990A1 (Genentech, Inc., priority 2014, published 2017)

What follows are compounds tested against Human recombinant carboxy-terminal his-tagged LDHA (amino acids 2-332) (Homo sapiens, UniProt P00338) (assay: LDHA enzyme inhibition assay (NADH fluorescence)). Details: LDHA IC50 (μM), 1 nM LDHA, NADH and pyruvate, stereochemistry of tested sample given.
Work on `O=C1CC(c2ccsc2)(c2cccc(Oc3ccc(Cl)cc3)n2)NC(=O)C1Sc1ccccc1Cl` (stereo not shown) [Example 175, 6-[6-(4-chlorophenoxy)-2-pyridyl]-3-(2-chlorophenyl) sulfanyl-6-(3-thienyl) piperidine-2,4-dione] yielded an IC50 of 0.013 µM. For `O=C1CC(c2ccsc2)(c2cccc(N3CCc4ccc(CO)cc43)n2)NC(=O)C1Sc1ccccc1Cl` (stereo not shown) [Example 177, 3-(2-chlorophenyl)sulfanyl-6-[6-[6-(hydroxymethyl)indolin-1-yl]-2-pyridyl]-6-(3-thienyl)piperidine-2,4-dione], the IC50 was 0.016 µM. `CC(COc1cccc(C2(c3ccsc3)CC(=O)C(Sc3ccccc3Cl)C(=O)N2)n1)C1CC1` (stereo not shown) [Example 179, 3-((2-chlorophenyl)thio)-6-(6-(2-cyclopropyl-propoxy)pyridin-2-yl)-6-(thiophen-3-yl)piperidine-2,4-dione] was tested, and the IC50 was 0.014 µM. `CC1CC1COc1cccc(C2(c3ccsc3)CC(=O)C(Sc3ccccc3Cl)C(=O)N2)n1` (stereo not shown) [Example 183, 3-(2-chlorophenyl)sulfanyl-6-[6-[(2-methylcyclo-propyl)methoxy]-2-pyridyl]-6-(3-thienyl)piperidine-2,4-dione] gave an IC50 of 0.005 µM. In the case of `O=C1CC(c2ccsc2)(c2cccc(OCc3ccncc3)n2)NC(=O)C1Sc1ccccc1Cl` (stereo not shown) [Example 186, 3-(2-chlorophenyl)sulfanyl-6-[6-(4-pyridylmethoxy)-2-pyridyl]-6-(3-thienyl) piperidine-2,4-dione], the IC50 was 0.021 µM. In the case of `CCC(C)COc1cccc(C2(c3ccsc3)CC(=O)C(Sc3ccccc3Cl)C(=O)N2)n1` (stereo not shown) [Example 188, 3-(2-chlorophenyl)sulfanyl-6-[6-(2-methylbutoxy)-2-pyridyl]-6-(3-thienyl) piperidine-2,4-dione], the IC50 was 0.015 µM. `O=C1CC(c2ccsc2)(c2cccc(OCCN3CCCC3=O)n2)NC(=O)C1Sc1ccccc1Cl` (stereo not shown) [Example 189, 3-(2-chlorophenyl)sulfanyl-6-[6-[2-(2-oxopyrrolidin-1-yl)ethoxy]-2-pyridyl]-6-(3-thienyl)piperidine-2,4-dione] was tested, and the IC50 was 0.15 µM. Work on `CC1(C)OCC(CCOc2cccc(C3(c4ccsc4)CC(=O)C(Sc4ccccc4Cl)C(=O)N3)n2)O1` (stereo not shown) [Example 190, 3-(2-chlorophenyl)sulfanyl-6-[6-[2-(2,2-dimethyl-1,3-dioxolan-4-yl)ethoxy]-2-pyridyl]-6-(3-thienyl) piperidine-2,4-dione] yielded an IC50 of 0.092 µM. `CC1(C)OCC(CCOc2cccc(C3(c4ccsc4)CC(=O)C(Sc4ccccc4Cl)C(=O)N3)n2)O1` (stereo not shown) [Example 191, 3-(2-chlorophenyl)sulfanyl-6-[6-[2-(2,2-dimethyl-1,3-dioxolan-4-yl)ethoxy]-2-pyridyl]-6-(3-thienyl) piperidine-2,4-dione] was tested, and the IC50 was 0.158 µM. Work on `CCC(C)COc1cccc(C2(c3ccsc3)CC(=O)C(Sc3ccccc3Cl)C(=O)N2)n1` (stereo not shown) [Example 210, 3-(2-chlorophenyl)sulfanyl-6-[6-(2-methylbutoxy)-2-pyridyl]-6-(3-thienyl) piperidine-2,4-dione] yielded an IC50 of 0.008 µM. Compound `CC1(C)OCC(CCOc2cccc(C3(c4ccsc4)CC(=O)C(Sc4ccccc4Cl)C(=O)N3)n2)O1` (stereo not shown) [Example 211, 3-(2-chlorophenyl)sulfanyl-6-[6-[2-(2,2-dimethyl-1,3-dioxolan-4-yl)ethoxy]-2-pyridyl]-6-(3-thienyl) piperidine-2,4-dione] has an IC50 of 0.183 µM. `O=C1CC(c2ccsc2)(c2cccc(Oc3ccc(F)c(F)c3)n2)NC(=O)C1Oc1ccccc1Cl` (stereo not shown) [Example 217, 3-(2-chlorophenoxy)-6-[6-(3,4-difluorophenoxy)-2-pyridyl]-6-(3-thienyl) piperidine-2,4-dione] showed an IC50 of 0.01 µM. Compound `O=C1CC(c2ccsc2)(c2cccc(NCCC3CCCCC3)n2)NC(=O)C1Sc1ccccc1Cl` (stereo not shown) [Example 220, 3-(2-chlorophenyl)sulfanyl-6-[6-(2-cyclohexyl-ethylamino)-2-pyridyl]-6-(3-thienyl)piperidine-2,4-dione] has an IC50 of 0.162 µM. Work on `O=C1CC(c2ccsc2)(c2cccc(OC3CCC3)n2)NC(=O)C1Sc1ccccc1Cl` (stereo not shown) [Example 222, 3-(2-chlorophenyl)sulfanyl-6-[6-(cyclobutoxy)-2-pyridyl]-6-(3-thienyl) piperidine-2,4-dione] yielded an IC50 of 0.322 µM. Compound `O=C1CC(c2ccsc2)(c2cccc(OCC3CCC3)n2)NC(=O)C1Sc1ccccc1Cl` (stereo not shown) [Example 224, 3-(2-chlorophenyl)sulfanyl-6-[6-(cyclobutylmethoxy)-2-pyridyl]-6-(3-thienyl) piperidine-2,4-dione] has an IC50 of 0.02 µM. `CC(C)(C)COc1cccc(C2(c3ccsc3)CC(=O)C(Sc3ccccc3Cl)C(=O)N2)n1` (stereo not shown) [Example 226, 3-(2-chlorophenyl)sulfanyl-6-[6-(2,2-dimethylpropoxy)-2-pyridyl]-6-(3-thienyl) piperidine-2,4-dione] showed an IC50 of 0.02 µM. For `Cn1ccnc1COc1cccc(C2(c3ccsc3)CC(=O)C(Sc3ccccc3Cl)C(=O)N2)n1` (stereo not shown) [Example 229, 3-(2-chlorophenyl)sulfanyl-6-[6-[(1-methylimidazol-2-yl)methoxy]-2-pyridyl]-6-(3-thienyl)piperidine-2,4-dione], the IC50 was 0.011 µM. `CC(C)(C)OCCOc1cccc(C2(c3ccsc3)CC(=O)C(Sc3ccccc3Cl)C(=O)N2)n1` (stereo not shown) [Example 230, 6-[6-(2-tert-butoxyethoxy)-2-pyridyl]-3-(2-chloro-phenyl)sulfanyl-6-(3-thienyl)piperidine-2,4-dione] gave an IC50 of 0.022 µM. Compound `CC(Oc1cccc(C2(c3ccsc3)CC(=O)C(Sc3ccccc3Cl)C(=O)N2)n1)C(F)(F)F` (stereo not shown) [Example 231, 3-(2-chlorophenyl)sulfanyl-6-(3-thienyl)-6-[6-(2,2,2-trifluoro-1-methyl-ethoxy)-2-pyridyl]piperidine-2,4-dione] has an IC50 of 0.009 µM. Work on `O=C1CC(c2ccsc2)(c2cccc(N3CC(C4CCOCC4)C3)n2)NC(=O)C1Sc1ccccc1Cl` (stereo not shown) [Example 232, 3-(2-chlorophenyl)sulfanyl-6-[6-(3-tetrahydropyran-4-ylazetidin-1-yl)-2-pyridyl]-6-(3-thienyl) piperidine-2,4-dione] yielded an IC50 of 0.009 µM. `O=C1CC(c2ccsc2)(c2cccc(N3CC(C4CCOCC4)C3)n2)NC(=O)C1Sc1ccccc1Cl` (stereo not shown) [Example 240, 3-(2-chlorophenyl)sulfanyl-6-[6-(3-tetrahydropyran-4-ylazetidin-1-yl)-2-pyridyl]-6-(3-thienyl) piperidine-2,4-dione] gave an IC50 of 0.003 µM. In the case of `O=C(NCC1CC1)c1cccc(C2(c3ccsc3)CC(=O)C(Sc3ccccc3Cl)C(=O)N2)n1` (stereo not shown) [Example 242, 6-[5-(2-chlorophenyl)sulfanyl-4,6-dioxo-2-(3-thienyl)-2-piperidyl]-N-(cyclopropylmethyl) pyridine-2-carboxamide], the IC50 was 0.004 µM. Compound `COCC(C)Oc1cccc(C2(c3ccsc3)CC(=O)C(Sc3ccccc3Cl)C(=O)N2)n1` (stereo not shown) [Example 246, 3-(2-chlorophenyl)sulfanyl-6-[6-(2-methoxy-1-methyl-ethoxy)-2-pyridyl]-6-(3-thienyl)piperidine-2,4-dione] has an IC50 of 0.01 µM. `CCOCC(C)Oc1cccc(C2(c3ccsc3)CC(=O)C(Sc3ccccc3Cl)C(=O)N2)n1` (stereo not shown) [Example 247, 3-((2-chlorophenyl)thio)-6-(6-((1-ethoxypropan-2-yl)oxy)pyridin-2-yl)-6-(thiophen-3-yl)piperidine-2,4-dione] was tested, and the IC50 was 0.01 µM. Work on `CCC1(COc2cccc([C@@]3(c4ccsc4)CC(=O)C(Sc4ccccc4Cl)C(=O)N3)n2)COC1` (stereo partly shown) [Example 248] yielded an IC50 of 0.005 µM.
